Values of other authors in US20170210704A1, “DEUTERO-PHENFORMIN DERIVATIVES” (Enlibrium Inc, priority 2016, published 2017).

Experiments:
[1] = test system: cytochrome P450 2D6; details: 2D6 polymorphisms in humans; essentially no metabolism in poor metabolizers
[2] = patients treated for type 2 diabetes

| metabolism in ultrarapid metabolizers relative to poor metabolizers [1] [fold] | risk of lactic acidosis [2] | SMILES |
| --- | --- | --- |
| 200 | 0.6 events per 1,000 patient years | [H]/N=C(/N)N/C(=N/[H])NCCc1ccccc1 [phenformin, Phenformin] |
| – | 0.1 events per 1,000 patient years | CN(C)C(=N)N=C(N)N [metformin, Metformin] |
